Assay results: patent publication US20040136931A1, “Photoprotective cosmetic compositions comprising 3-(2-azacycloalkylidene)-1,3-dihydroindol-2-one compounds” (SOCIETE L'OREAL S.A., priority 2002, published 2004)

Experiments:
[1] = Photostability: irradiation of an oily film in a solar simulator; type: physicochemical; conditions: one hour of irradiation in a solar simulator (UVA=18.6 mW/cm^2, UVB=0.6 mW/cm^2); oily film containing 0.5% of the compound
[2] = RPE (Resonance Paramagnetic Electronic) study of pro-oxidizing activity under irradiation; conditions: formulated medium, irradiation under the same conditions as the photostability test (solar simulator)
[3] = Sun screening properties (UV absorption); type: physicochemical; conditions: 92.8% acetonitrile+7.2% DMSO
Excerpt: This compound has the following sun screening properties:
λmax=350 nm (92.8% acetonitrile+7.2% DMSO)

SMILES | residual level of the compound after irradiation [1] [%] | pro-oxidizing activity [2] | λmax [3] [nm] | E1% ([3]; at λmax) | εmax ([3]; at λmax)
CCN1C(=O)/C(=C2/CCCN2C)c2ccccc21 [Compound 1, 1-Ethyl-3-(1-methylpyrrolidin-2-ylidene)-1,3-dihydroindol-2-one] | 92 | does not manifest any pro-oxidizing activity | 350 | 722 | 17501 1.mol^−1.cm^−1
CCN1C(=O)/C(=C2/CCCN2)c2ccccc21 [Compound 2, 1-Ethyl-3-pyrrolidin-2-ylidine-1,3-dihydroindol-2-one] | – | – | 326 | – | 22600 1.mol^−1.cm^−1
O=C1Nc2ccccc2/C1=C1\CCCN1 [Compound 3, 3-Pyrrolidin-2-ylidene-1,3-dihydroindol-2-one] | – | – | 328 | – | 8100 1.mol^−1.cm^−1
